Results taken from US20110158944A1, “BRAF BIOMARKERS” (priority 2007, published 2011).
Where two headings read alike, the source gives them in different places.

Columns and labels:
Assay in all cases: Cell proliferation IC50 (Cell Titer Glo)
Type in all cases: cell-based
Jurkat = conditions: Homo sapiens, 96 h, read-out: IC50 cell proliferation
Method: (§1) IC50 Cell proliferation measurements. Cell proliferation was assessed in the 41 tumor cell lines set forth in Table 2 after 4 days of continuous exposure to either the ERK1/2 inhibitor, compound a or the MEK inhibitor compound b (PD0325901) using Promega Cell Titer Glo reagent (Promega Corp, Madison, Wis.). Promega's CellTiter-Glo™ Luminescent Cell Viability Assay is a sensitive method for assaying cell proliferation using a stable form of luciferase to measure ATP as an indicator of viable cells. This reagent allows a homogeneous method of determining cell number by quantitation of ATP. The luciferase luminescent signal produced is proportional to the number of viable cells present in culture.
(§2) A 1000× compound dose response curve, containing 8 dilutions of each compound, was prepared on a 96-well plate. Compounds were diluted in 100% DMSO to the following (1000×) concentrations: compound b: 1000 μM, 333 μM, 111 μM, 37 μM, 12 μM, 4.1 μM, 1.4 μM and 0.5 μM; compound a: 3000 μM, 1000 μM, 333 μM, 111 μM, 37 μM, 12 μM, 4.1 μM and 1.4 μM. This compound source plate was sealed and kept frozen between uses.
(§3) Cells were grown in RPMI 1640 medium supplemented with 10% Fetal Bovine Serum, 2 mM Glutamine and non-essential amino acids or DMEM/F12 Media containing the same supplements. On day zero, cells were trypsinized, counted and plated into wells of a 96-well Wallac TC Isoplate (Perkin-Elmer Wallac, Gaithersburg, Md.) at a density of 1500-2000 cells per well in 50 μl of complete media. An additional 6-8 replicate well of the cells at the same density were plated on a separate Wallac TC Isoplate. This plate was developed on day 1 to determine the cell-growth baseline.
(§4) On day 1 of treatment, compound was diluted to 2× in media and immediately added to the cells as follows: one ml of media was added to each well of a deep-well 96-well plate and 2 μl of 1000× compound was added with mixing to make 2× compound in media. 50 μl of the media containing 2× compound was added to the cell plates in duplicate points so the final concentrations for each well were as outlined in Table 1. The plates were then returned to a 37° C. incubator and left undisturbed for 4 days. The day 1 (baseline) plates were developed by first adding 50 μl media (without compound) to bring the volume in each well to 100 μl, then adding 100 μl of Cell Titer Glo reagent (as below).
(§5) After four days of treatment, the plates were developed with Cell Titer Glo (CTG) reagent (Promega Corp.; Madison, Wis.). Reagent was reconstituted as described in the product insert. 100 μl of reagent was added to all treatment and control wells and the plates were gently shaken for 5 minutes then incubated an additional 5 minutes before reading in an Analyst AD (Molecular Devices Corporation; Sunnyvale, Calif.) using the Luminescence settings.
(§6) Data was analyzed in Excel using XLfit 4.2, fit model #205 (Dose Response One Site)

H292 = conditions: Homo sapiens, NCI-H292, 96 h, read-out: IC50 cell proliferation
Method: as §1, §2, §3, §4, §5, §6

Daudi = conditions: Homo sapiens, 96 h, read-out: IC50 cell proliferation
Method: as §1, §2, §3, §4, §5, §6

Colo-205 = conditions: Homo sapiens, read-out: IC50 cell proliferation
Method: as §1, §2, §3, §4, §5, §6

RPMI-7951 = conditions: Homo sapiens, read-out: IC50 cell proliferation
Method: as §1, §2, §3, §4, §5, §6

SK-Mel3 = conditions: Homo sapiens, read-out: IC50 cell proliferation
Method: as §1, §2, §3, §4, §5, §6

Malme 3M = conditions: Homo sapiens, 96 h, read-out: IC50 cell proliferation
Method: as §1, §2, §3, §4, §5, §6

SJCRH30 = conditions: Homo sapiens, 96 h, read-out: IC50 cell proliferation
Method: as §1, §2, §3, §4, §5, §6

KG-1 = conditions: Homo sapiens, read-out: IC50 cell proliferation
Method: as §1, §2, §3, §4, §5, §6

LOX = conditions: Homo sapiens, 96 h, read-out: IC50 cell proliferation
Method: as §1, §2, §3, §4, §5, §6

Hs695T = conditions: Homo sapiens, Hs 695T, 96 h, read-out: IC50 cell proliferation
Method: as §1, §2, §3, §4, §5, §6

SK-Mel-31 = conditions: Homo sapiens, 96 h, read-out: IC50 cell proliferation
Method: as §1, §2, §3, §4, §5, §6

SNU-16 = conditions: Homo sapiens, read-out: IC50 cell proliferation
Method: as §1, §2, §3, §4, §5, §6

WiDr = conditions: Homo sapiens, 96 h, read-out: IC50 cell proliferation
Method: as §1, §2, §3, §4, §5, §6

A673 = conditions: Homo sapiens, read-out: IC50 cell proliferation
Method: as §1, §2, §3, §4, §5, §6

SK-Mel-1 = conditions: Homo sapiens, read-out: IC50 cell proliferation
Method: as §1, §2, §3, §4, §5, §6

BHT 101 = conditions: Homo sapiens, read-out: IC50 cell proliferation
Method: as §1, §2, §3, §4, §5, §6

[1] = Leukemia, BRAF V600V Wild type, 4 days continuous exposure

O=C(Nc1ccc2[nH]nc(-c3ccncc3)c2c1)C1CCN(CC(=O)N2CCN(c3ccc(-c4ncccn4)cc3)CC2)C1 (stereo not shown) [cpd. a]
IC50 (Jurkat; [1]): > 3000 nM | IC50 (H292; H292, Lung, BRAF V600V Wild type, 4 days continuous exposure): 90 nM | IC50 (Daudi; [1]): > 3000 nM | IC50 (Colo-205; 96 h, Colo-205, Colon, BRAF V600E Homozygous, 4 days continuous exposure): 36 nM | IC50 (RPMI-7951; 96 h, RPMI-7951, Melanoma, BRAF V600E Heterozygous, 4 days continuous exposure): 344 nM | IC50 (SK-Mel3; 96 h, SK-Mel3, Melanoma, BRAF V600E Heterozygous, 4 days continuous exposure): 118 nM | IC50 (Malme 3M; Malme 3M, Melanoma, BRAF V600E Homozygous, 4 days continuous exposure): 10 nM | IC50 (SJCRH30; SJCRH30, Rhabdomyosarcoma, BRAF V600V Wild type, 4 days continuous exposure): 2000 nM | IC50 (KG-1; 96 h, KG-1, Leukemia, BRAF V600V Wild type, 4 days continuous exposure): 900 nM | IC50 (LOX; Melanoma, BRAF V600E Homozygous, 4 days continuous exposure): 100 nM | IC50 (Hs695T; Hs695T, Melanoma, BRAF V600E Heterozygous, 4 days continuous exposure): 165 nM | IC50 (SK-Mel-31; SK-Mel-31, Melanoma, BRAF V600E Heterozygous, 4 days continuous exposure): 150 nM | IC50 (SNU-16; 96 h, SNU-16, Gastric, BRAF V600V Wild type, 4 days continuous exposure): > 3000 nM | IC50 (WiDr; Colon, BRAF V600E Heterozygous, 4 days continuous exposure): 39 nM | IC50 (A673; 96 h, A673, Rhabdomyosarcoma, BRAF V600E Heterozygous, 4 days continuous exposure): > 3000 nM | IC50 (SK-Mel-1; 96 h, SK-Mel-1, Melanoma, BRAF V600E Heterozygous, 4 days continuous exposure): 37 nM | IC50 (BHT 101; 96 h, BHT 101, Thyroid, BRAF V600E Heterozygous, 4 days continuous exposure): 300 nM

O=C(NOC[C@H](O)CO)c1ccc(F)c(F)c1Nc1ccc(I)cc1F [cpd. b, PD0325901]
IC50 (Jurkat): 1000 nM | IC50 (H292): 5 nM | IC50 (Daudi): 1000 nM | IC50 (Colo-205; COLO 205, 96 h): 5 nM | IC50 (RPMI-7951; RPMI-7951, 96 h): 69 nM | IC50 (SK-Mel3; SK-MEL3, 96 h): 8 nM | IC50 (Malme 3M; Malme-3M): 10 nM | IC50 (SJCRH30): 1000 nM | IC50 (KG-1; KG-1, 96 h): 40 nM | IC50 (LOX): 57 nM | IC50 (Hs695T): 29 nM | IC50 (SK-Mel-31): 18 nM | IC50 (SNU-16; SNU-16, 96 h): 1000 nM | IC50 (WiDr): 6 nM | IC50 (A673; A673, 96 h): 1000 nM | IC50 (SK-Mel-1; SK-MEL-1, 96 h): 3 nM | IC50 (BHT 101; BHT-101, 96 h): 10 nM
